The supplement of paper PMC10307832

Assays:
Test in all cases: relative viability (nuclei count vs DMSO), 5 days (fraction); higher = more cells survive
Metformin + Trametinib = compound: CN(C)C(=N)NC(=N)N [Metformin] + CC(=O)Nc1cccc(-n2c(=O)n(C3CC3)c(=O)c3c(Nc4ccc(I)cc4F)n(C)c(=O)c(C)c32)c1 [Trametinib] (partner 0.02 µM)
Outline: (§1)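 Dosing by pin tool came one day after lung cancer cell lines were seeded in 1536-well plates, using either one drug or a fixed anchor-drug dose plus five library-drug doses (not always all listed) in √10 steps. After 5 days, nuclei were counted on 4× images. Relative viability is treated-well nuclei count divided by vehicle-well nuclei count, and values are medians of duplicate plates.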

Apatinib + Navitoclax = compound: N#CC1(c2ccc(NC(=O)c3cccnc3NCc3ccncc3)cc2)CCCC1 [Apatinib] + CC1(C)CCC(c2ccc(Cl)cc2)=C(CN2CCN(c3ccc(C(=O)NS(=O)(=O)c4ccc(N[C@H](CCN5CCOCC5)CSc5ccccc5)c(S(=O)(=O)C(F)(F)F)c4)cc3)CC2)C1 [Navitoclax] (partner 0.5 µM)
Outline: as §1

Apatinib = compound: N#CC1(c2ccc(NC(=O)c3cccnc3NCc3ccncc3)cc2)CCCC1 [Apatinib]
Outline: (§2)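 Lung cancer cell lines received five library-drug doses (not always all listed) spaced by √10, pinned on vehicle-anchored 1536-well plates after an overnight stay at 37 °C. Five days later, with no medium change, nuclei were Hoechst-stained, imaged at 4× and counted with MetaXpress. Viability is treated-well nuclei relative to vehicle-well nuclei, as a median across plates. Passing plates had control CV below 25% and at least one doubling.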

Metformin = compound: CN(C)C(=N)NC(=N)N [Metformin]
Outline: as §2

Cell Line | relative viability (Metformin + Trametinib; first compound 10 µM) | relative viability (Metformin + Trametinib; first compound 31.62 µM) | relative viability (Metformin + Trametinib; first compound 100 µM) | relative viability (Metformin + Trametinib; first compound 316.23 µM) | relative viability (Metformin + Trametinib; first compound 1000 µM) | relative viability (Apatinib + Navitoclax; first compound 0.08 µM) | relative viability (Apatinib + Navitoclax; first compound 0.253 µM) | relative viability (Apatinib + Navitoclax; first compound 0.8 µM) | relative viability (Apatinib + Navitoclax; first compound 2.53 µM) | relative viability (Apatinib + Navitoclax; first compound 8 µM) | relative viability (Apatinib; 0.08 µM) | relative viability (Apatinib; 0.253 µM) | relative viability (Apatinib; 0.8 µM) | relative viability (Apatinib; 2.53 µM) | relative viability (Apatinib; 8 µM) | relative viability (Metformin; 10 µM) | relative viability (Metformin; 31.62 µM) | relative viability (Metformin; 100 µM) | relative viability (Metformin; 316.23 µM) | relative viability (Metformin; 1000 µM)
A-427 | 0.719 | 0.868 | 0.725 | 0.692 | 0.54 | 0.929 | 0.911 | 0.934 | 0.853 | 0.478 | 1.09 | 0.967 | 0.965 | 0.926 | 0.906 | 1.05 | 1.02 | 0.985 | 1.01 | 1.05
SK-LU-1 | 0.452 | 0.453 | 0.458 | 0.382 | 0.442 | 0.965 | 1.35 | 0.705 | 0.638 | 0.631 | 1.09 | 1.08 | 0.992 | 0.949 | 0.931 | 0.997 | 0.976 | 0.967 | 0.901 | 1.01
NCI-H2405 | – | 0.744 | 0.635 | 0.688 | 0.555 | 1.03 | 1.07 | 1.01 | 0.832 | 0.803 | 0.954 | 1.04 | 1.07 | 0.909 | 0.955 | 0.756 | 1.04 | 0.91 | 0.971 | 0.931
LK-2 | 0.829 | 1.23 | 1.54 | 1.08 | 1.26 | 0.879 | 0.857 | 0.885 | 0.769 | 0.634 | 0.978 | 0.976 | 0.973 | 0.856 | 0.634 | 1.22 | 1.28 | 1.22 | 1.07 | 1.32
LOU-NH91 | 0.732 | 0.76 | 0.786 | 0.766 | 0.761 | 0.692 | 0.744 | 0.517 | 0.565 | 0.58 | 0.94 | 0.922 | 0.871 | 0.89 | 0.898 | 0.998 | 0.865 | 0.973 | 0.997 | 0.946
COR-L 105 | 0.428 | 0.479 | 0.511 | 0.454 | 0.489 | 0.665 | 1.03 | 0.695 | 0.841 | 0.636 | 0.976 | 1.04 | 0.85 | 0.814 | 0.855 | 1.02 | 1.04 | 1.16 | 0.994 | 0.964
NCI-H1650 | 0.597 | 0.602 | 0.718 | 0.474 | 0.458 | 1.39 | 1.41 | 1.18 | 1.1 | 1.06 | 0.904 | 1.01 | 0.86 | 0.832 | 0.824 | 1.09 | 0.865 | 1.17 | 1.03 | 0.931
H3255 | 0.587 | 0.789 | 0.648 | 0.57 | 0.508 | 0.512 | 0.62 | 0.34 | 0.52 | 0.607 | 0.979 | 0.935 | 0.964 | 0.859 | 0.916 | 0.839 | 1.09 | 0.967 | 0.909 | 0.841
NCI-H2228 | 0.699 | 0.681 | 0.398 | 0.434 | 0.553 | 1.02 | 0.988 | 0.738 | 0.708 | 0.751 | 1.13 | 1.08 | 0.993 | 0.867 | 0.846 | 0.913 | 1.08 | 0.803 | 0.907 | 1.22
NCI-H1993 | 0.477 | 0.634 | 0.497 | 0.425 | 0.611 | 1.13 | 0.822 | 0.813 | 0.688 | 0.772 | 1.01 | 0.923 | 0.889 | 0.833 | 0.869 | 1.03 | 0.892 | 1 | 0.872 | 1.07
ChaGo-K-1 | 0.923 | 0.895 | 0.909 | 0.729 | 0.902 | – | 1.4 | 0.971 | 0.888 | 0.993 | 1.01 | 1.09 | 0.932 | 0.938 | 0.989 | 0.951 | 1.11 | 1.05 | 0.896 | 0.987
NCI-H441 | – | 0.575 | 0.573 | 0.442 | 0.639 | 1.07 | 0.5 | 0.728 | 0.519 | 0.31 | 1.08 | 1.05 | 0.837 | 0.864 | 0.743 | – | 0.761 | 0.985 | 0.667 | 0.944
NCI-H1651 | 0.908 | 0.999 | 1.01 | 0.903 | 1 | 1.02 | 1.22 | 0.97 | 0.928 | 0.867 | 0.988 | 0.984 | 0.986 | 0.939 | 0.871 | 1.08 | 1.17 | 1.12 | 1.11 | 1.11
NCI-H838 | 0.557 | 0.572 | 0.541 | 0.525 | 0.579 | 1.25 | 1.27 | 1.09 | 1.12 | 1.05 | 1.08 | 1.06 | 0.97 | 0.936 | 0.941 | 1.05 | 1.07 | 1.01 | 0.987 | 1.04
NCI-H1755 | 0.683 | 0.626 | 0.656 | 0.682 | 0.676 | 1 | 0.968 | 0.963 | 0.952 | 0.865 | 1.02 | 1 | 1 | 1.06 | 0.951 | 0.807 | 0.891 | 0.864 | 0.853 | 0.897
NCI-H1734 | 0.652 | 0.763 | 0.653 | 0.662 | 0.726 | 0.852 | 0.81 | 0.861 | 0.708 | 0.685 | 1.18 | 0.987 | 0.991 | 0.909 | 0.845 | 1.01 | 1.03 | 1.04 | 1.01 | 1.02
